Assay results reported in patent publication US20100035311A1, “METHOD AND COMPOSITION FOR ENZYME STORAGE” (priority 2006, published 2010).
“And” between values parts separate entries of the source, which are not always exact repeats. Equal entries are not always repeated. Where two headings read alike, the source gives them in different places.

How the values were obtained:
[1] = system: Medicago truncatula hydroperoxide lyase CYP74C3 (HPLF), recombinant, wild type, N-terminal histidine-tagged; details: for Km / kcat: pH 6.5, 25° C.; for Km / affinity, fold change on detergent removal (Km higher) / kcat, fold difference (detergent-buffer higher than detergent-free): detergent-buffer vs detergent-free; for catalytic efficiency (kcat/Km) of detergent-free enzyme as % of enzyme purified without detergent removal: detergent-free vs detergent-buffer; for kcat as % of kcat with 13α-HPOT: purified in detergent-buffer
CYP74A1 [2] = molecular target: T1, CYP74A1 (Arabidopsis thaliana, UniProt Q96242)
T1 sequence (Q96242 with tags, fused parts or gaps): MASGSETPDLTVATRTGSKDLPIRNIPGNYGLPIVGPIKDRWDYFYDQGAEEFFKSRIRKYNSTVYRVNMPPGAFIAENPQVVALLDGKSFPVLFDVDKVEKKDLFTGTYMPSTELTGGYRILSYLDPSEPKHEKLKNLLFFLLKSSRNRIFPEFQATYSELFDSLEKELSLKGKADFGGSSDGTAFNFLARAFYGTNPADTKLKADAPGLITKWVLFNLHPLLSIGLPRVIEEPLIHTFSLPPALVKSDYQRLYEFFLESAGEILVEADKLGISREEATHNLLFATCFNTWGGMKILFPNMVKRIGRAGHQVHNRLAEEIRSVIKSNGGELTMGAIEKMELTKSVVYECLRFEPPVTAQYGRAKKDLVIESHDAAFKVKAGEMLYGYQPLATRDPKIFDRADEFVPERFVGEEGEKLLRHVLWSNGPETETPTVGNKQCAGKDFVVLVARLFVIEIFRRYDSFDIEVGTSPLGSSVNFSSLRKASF

CYP74C3 [3] = details: cited from earlier work
CYP74C3 [4] = system: CYP74C3
Description: (a) UV/Visible spectra of ligand-bound forms of oxidised native CYP74C3 (2 μM, ? ); KCN (100 mM, ——); imidazole (50 mM, ---------); DMPhP (250 mM, —[…] […]—). The spectrum of dithionite (50 mM) reduced CYP74C3 (2 μM) before ([…]) and after (—[…]—) reaction with CO (˜1 mM) are also shown. […] (c) Stopped-flow diode array spectral changes over a period of 200 s for cyanide (100 mM) binding to native oxidised CYP74C3 (2 μM).
Spectra and steady-state kinetic analyses were performed using a dual beam scanning Shimadzu UV/Visible spectrophotometer (Model UV-1601, Shimadzu, Milton Keynes, U.K.). […] Stopped flow-UV/Visible data were analysed with the KineticAsyst 3.0 software package (Hi-Tech Scientific). Ligand-binding studies were carried out with both the native oxidised and the dithionite ion reduced forms of CYP74C3.

CYP74C3 [5] = assay type: biochemical, Medicago truncatula
Description: Protein content was estimated using the Bradford or bicinchoninic acid (BCA) assay (Pierce, Perbio Science, Cramlington, Northumberland, U.K.) according to the manufacturer's instructions. Bovine serum albumin was used as a standard. […] Substrate specificity was determined by comparing kcat/Km.

AOS = details: ref [23′]; cited from earlier work
CYP74C3 [6] = system: CYP74C3; remark: listed apart in the source
Description: (a) Dose response curve for reactivation of detergent-free CYP74C3 with the detergent Emulphogene. Detergent-free CYP74C3 was incubated with an equal volume of 100 mM sodium phosphate buffer, pH 6.5 or containing detergent (0.01-10.24 mM Emulphogene) for 15 min on ice. Samples (1.2 pmol) were then assayed for HPL activity in the standard assay with 20 μM 13α-HPOT; (b) Plot of predicted micelle concentration versus activity for calculation of Kd for Emulphogene binding and (c) Fit of velocity-substrate curves to one-site saturation model in SigmaPlot for detergent-free CYP74C3 (1.0 pmol, ∘---∘), CYP74C3 purified in detergent-buffer (0.5 pmol, ∘—∘) and detergent-free CYP74C3 after reactivation with 5 mM Emulphogene (0.5 pmol, ▾—▾). […] Error bars are the means±standard errors of at least six determinations on two different enzyme preparations.
Substrate specificity was determined by comparing kcat/Km.

CYP74A1 [7] = molecular target: T1, CYP74A1; details: pH 6.5
[8] = assay type: physicochemical
Description: The following table provides a summary enzyme stability studies conducted on HPL and AOS enzymes, subjected to either freeze drying or speedvac drying, in the presence or absence of detergent. What is reported here is the degree to which enzyme activity is lost based on the storage condition. […] Subsequent re-hydration of each dried enzyme and spectroscopic analysis was used to determine the stability of the thus-treated enzymes. FIG. 11 provides stability over time information for the thus stored enzymes showing stability for at least ten weeks. UV/Vis spectra of detergent-free preparations of CYP74C3 (HPLF), CYP74A1 (AOS) and Pepper HPL were determined before and after freeze drying, as well as before and after drying in a speedvac. […] The UV/Vis spectra of preparations of CYP74C3 (HPLF), CYP74A1 (AOS) and Pepper HPL in the detergent triton before and after freeze drying were further determined. The UV/Vis spectra of these preparations were used to determine the percentage loss of protein resulting from freeze drying, or drying in a speedvac and the results are summarised in the following table.

[9] = +Detergent (purified in detergent-buffer)
[10] = Reactivated with 5 mM Emulphogene
[11] = monomer-micelle complex vs detergent-free monomer

CCCCC/C=C\C=C\[C@H](CCCCCCCC(=O)O)OO [9α-HPOD]
Substrate specificity (% 13α-HPOT), from kcat/Km [1, 9]: 8% | kcat/Km [1, 9]: 12.9 µM⁻¹ s⁻¹ | Km [1, 9]: 15.3 ± 1.4 µM | kcat [1, 9]: 197 ± 6 s⁻¹ | Substrate specificity (% 13α-HPOT), from kcat/Km ([1]; Detergent-free): 16% | kcat/Km ([1]; Detergent-free): 0.5 µM⁻¹ s⁻¹ | Km ([1]; Detergent-free): 84.5 ± 10.1 µM | kcat ([1]; Detergent-free): 44 ± 2 s⁻¹ | Substrate specificity (% 13α-HPOT), from kcat/Km [1, 10]: 5% | kcat/Km [1, 10]: 7.2 µM⁻¹ s⁻¹ | Km [1, 10]: 25.8 ± 2.2 µM | kcat [1, 10]: 185 ± 7 s⁻¹ | Km / affinity, fold change on detergent removal (Km higher) [1]: 6 fold | kcat, fold difference (detergent-buffer higher than detergent-free) [1]: 5 fold | catalytic efficiency (kcat/Km) of detergent-free enzyme as % of enzyme purified without detergent removal [1]: 4% | kcat as % of kcat with 13α-HPOT [1]: 38%

CC/C=C\C/C=C\C=C\[C@H](CCCCCCCC(=O)O)OO [9α-HPOT, 9-S-hydroperoxy-10E,12Z,15Z-octadecatrienoic acid]
Substrate specificity (% 13α-HPOT), from kcat/Km [1, 9]: 0.4% | kcat/Km [1, 9]: 0.6 µM⁻¹ s⁻¹ | Km [1, 9]: 39.1 ± 7.2 µM | kcat [1, 9]: 24 ± 2 s⁻¹ | Substrate specificity (% 13α-HPOT), from kcat/Km ([1]; Detergent-free): 3% | kcat/Km ([1]; Detergent-free): 0.1 µM⁻¹ s⁻¹ | Km ([1]; Detergent-free): 81.6 ± 9.7 µM | kcat ([1]; Detergent-free): 8 ± 0 s⁻¹ | Substrate specificity (% 13α-HPOT), from kcat/Km [1, 10]: 0.4% | kcat/Km [1, 10]: 0.6 µM⁻¹ s⁻¹ | Km [1, 10]: 51.7 ± 4.4 µM | kcat [1, 10]: 30 ± 1 s⁻¹ | Km / affinity, fold change on detergent removal (Km higher) [1]: 2 fold | kcat, fold difference (detergent-buffer higher than detergent-free) [1]: 3 fold | catalytic efficiency (kcat/Km) of detergent-free enzyme as % of enzyme purified without detergent removal [1]: 17% | kcat as % of kcat with 13α-HPOT [1]: 5%

CCCCC[C@@H](/C=C/C=C\CCCCCCCC(=O)O)OO [13α-HPOD, 13-S-hydroperoxyoctadeca-9Z, 11 E-dienoic acid]
Substrate specificity (% 13α-HPOT), from kcat/Km [1, 9]: 23% and 19% | kcat/Km [1, 9]: 35.0 µM⁻¹ s⁻¹ | Km [1, 9]: 10.3 ± 2.1 µM | kcat [1, 9]: 361 ± 19 s⁻¹ | Substrate specificity (% 13α-HPOT), from kcat/Km ([1]; Detergent-free): 19% | kcat/Km ([1]; Detergent-free): 0.6 µM⁻¹ s⁻¹ | Km ([1]; Detergent-free): 102 ± 11.8 µM | kcat ([1]; Detergent-free): 59 ± 3 s⁻¹ | Substrate specificity (% 13α-HPOT), from kcat/Km [1, 10]: 22% | kcat/Km [1, 10]: 33.5 µM⁻¹ s⁻¹ | Km [1, 10]: 14.7 ± 1.9 µM | kcat [1, 10]: 493 ± 17 s⁻¹ | Km / affinity, fold change on detergent removal (Km higher) [1]: 10 fold | kcat, fold difference (detergent-buffer higher than detergent-free) [1]: 6 fold | catalytic efficiency (kcat/Km) of detergent-free enzyme as % of enzyme purified without detergent removal [1]: 2% | kcat as % of kcat with 13α-HPOT [1]: 70%

CC/C=C\C[C@@H](/C=C/C=C\CCCCCCCC(=O)O)OO [13α-HPOT, 13-S-hydroperoxy-9Z,11E,15Z-octadecatrienoic acid]
Substrate specificity (% 13α-HPOT), from kcat/Km [1, 9]: 100% | kcat/Km [1, 9]: 155.8 µM⁻¹ s⁻¹ | Km [1, 9]: 3.3 µM | kcat [1, 9]: 514 ± 11 s⁻¹ | Substrate specificity (% 13α-HPOT), from kcat/Km ([1]; Detergent-free): 100% | kcat/Km ([1]; Detergent-free): 3.2 µM⁻¹ s⁻¹ | Km ([1]; Detergent-free): 20.9 ± 1.7 µM | kcat ([1]; Detergent-free): 68 ± 5 s⁻¹ | Substrate specificity (% 13α-HPOT), from kcat/Km [1, 10]: 100% | kcat/Km [1, 10]: 149.3 µM⁻¹ s⁻¹ | Km [1, 10]: 4.4 ± 0.6 µM | Km / affinity, fold change on detergent removal (Km higher) [1]: 6 fold | kcat, fold difference (detergent-buffer higher than detergent-free) [1]: approximately 8 fold | catalytic efficiency (kcat/Km) of detergent-free enzyme as % of enzyme purified without detergent removal [1]: 2% | CYP74C3, fold faster than CYP74A1 (kcat/Km) ([1]; in detergent micelles, CYP74C3 vs CYP74A1): 2.6 fold | fold increase in kcat/Km upon micelle binding ([1]; micelle-bound vs detergent-free): ~50 fold | Km of monomer-micelle complex, fold lower than detergent-free monomer [1, 11]: 5-6 fold | kcat of monomer-micelle complex, fold higher than detergent-free monomer [1, 11]: 8-10 fold | kcat/Km ([1]; with detergent): up to 1.6×10^8 M^−1. s^−1 | fold increase in kcat/Km after reactivation with detergent micelles (CYP74A1 [2]): ~50 fold | fold increase in kcat/Km upon micelle binding (CYP74C3 [3]): ~50 fold

[N-]=[N+]=[N-] [Azide, azide]
binding of ligand to CYP74C3 (CYP74C3 [4]): shown to bind | Spin state of the haem iron after ligand or detergent binding (CYP74C3 [4]; pH 6.5): Mixture

c1ccc2[nH]cnc2c1 [BI, benzimidazole]
binding of ligand to CYP74C3 (CYP74C3 [4]): shown to bind

[C-]#[O+] [CO, Carbon monoxide]
Spin state of the haem iron after ligand or detergent binding (CYP74C3 [4]; pH 6.5): Low

c1c[nH]cn1 [Imidazole, imidazole]
activity of CYP74C3 after elution from IMAC with the ligand (CYP74C3 [5]): virtually inactive enzyme | inhibition of AOS (AOS): potent inhibitor | binding of ligand to CYP74C3 (CYP74C3 [4]): shown to bind | k1 of biphasic ligand binding (CYP74C3 [4]; pH 6.5): 2.5±0.1×10^−2 s^−1 | k2 of biphasic ligand binding (CYP74C3 [4]; pH 6.5): 0.33±0.03×10^−2 s^−1

N#C[S-].[K+] [KCNS, potassium thiocyanate]
binding of ligand to CYP74C3 (CYP74C3 [4]): shown to bind | Spin state of the haem iron after ligand or detergent binding (CYP74C3 [4]; pH 6.5): Mixture

O=O [O2, dioxygen]
binding of ligand to CYP74C3 (CYP74C3 [4]): shown to bind

c1ccncc1 [Pyridine, pyridine]
binding of ligand to CYP74C3 (CYP74C3 [4]): shown to bind | Spin state of the haem iron after ligand or detergent binding (CYP74C3 [4]; pH 6.5): Low

c1cscn1 [Thiazole, thiazole]
binding of ligand to CYP74C3 (CYP74C3 [4]): shown to bind

polyoxyethylene 10 tridecyl ether [Emulphogene]
Emulphogene concentration at which detergent-free CYP74C3 could be reactivated (CYP74C3 [6]): exceeding 2.6 mM | Kd (CYP74C3 [6]): 6.9 µM | reactivation of detergent-free CYP74C3 (CYP74C3 [6]): No reactivation | Spin state of the haem iron after ligand or detergent binding (CYP74C3 [4]; pH 6.5): Low | Kd (CYP74A1 [7]): 10.7 ± 1.7 µM

B1: CYP74A1: recombinant allene oxide synthase (AOS) from Arabidopsis thaliana (protein, UniProt Q96242 34-518, looked up)
Allene oxide synthase, …: SGSETPDLTVATRTGSKDLPIRNIPGNYGLPIVGPIKDRWDYFYDQGAEEFFKSRIRKYNSTVYRVNMPPGAFIAENPQVVALLDGKSFPVLFDVDKVEKKDLFTGTYMPSTELTGGYRILSYLDPSEPKHEKLKNLLFFLLKSSRNRIFPEFQATYSELFDSLEKELSLKGKADFGGSSDGTAFNFLARAFYGTNPADTKLKADAPGLITKWVLFNLHPLLSIGLPRVIEEPLIHTFSLPPALVKSDYQRLYEFFLESAGEILVEADKLGISREEATHNLLFATCFNTWGGMKILFPNMVKRIGRAGHQVHNRLAEEIRSVIKSNGGELTMGAIEKMELTKSVVYECLRFEPPVTAQYGRAKKDLVIESHDAAFKVKAGEMLYGYQPLATRDPKIFDRADEFVPERFVGEEGEKLLRHVLWSNGPETETPTVGNKQCAGKDFVVLVARLFVIEIFRRYDSFDIEVGTSPLGSSVNFSSLRKASF
Loss of active protein (%) ([8]; Freeze Drying, +Emulphogene (0.3% w/v)): 58.1% | Loss of active protein (%) ([8]; Freeze Drying, +Triton X-100 (0.2% w/v)): 41.3% | Loss of active protein (%) ([8]; Freeze Drying, Detergent-free): 2.3% | Loss of active protein (%) ([8]; Speedvac Drying, +Emulphogene (0.3% w/v)): 83.1% | Loss of active protein (%) ([8]; Speedvac Drying, Detergent-free): 17.6% | fold increase in kcat/Km after reactivation with detergent micelles (CYP74A1 [2]): 48 fold
